Experimental data taken from patent US11739064B2, “HDAC inhibitors and therapeutic methods using the same” (THE BOARD OF TRUSTEES OF THE UNIVERSITY OF ILLINOIS, priority 2015, dated 2023).
Like-named read-outs stand apart in the source and are kept apart here.

How the values were obtained:
HDAC2 = HDAC2 (Homo sapiens, UniProt Q92769); experiment: In vitro HDAC inhibition assay, HDAC2; type: biochemical; conditions: NI = No inhibition at a concentration of 50 pM (footnote b); read-out: HDAC isoform IC50, HDAC2
HDAC3/NcoR2 complex = HDAC3/NcoR2 complex (Homo sapiens, UniProt O15379); experiment: In vitro HDAC inhibition assay, HDAC3; type: biochemical; conditions: NI = No inhibition at a concentration of 50 pM (footnote b); read-out: HDAC isoform IC50, HDAC3
Human HDAC1 = Human HDAC1 (Homo sapiens, UniProt Q13547); experiment: In vitro HDAC inhibition assay, HDAC1
HDAC10 = biological target: T1, HDAC10 (Homo sapiens, UniProt Q969S8); experiment: In vitro HDAC inhibition assay, HDAC10; type: biochemical; conditions: NI = No inhibition at a concentration of 50 pM (footnote b); read-out: HDAC isoform IC50, HDAC10
T1 sequence (Q969S8 1-669): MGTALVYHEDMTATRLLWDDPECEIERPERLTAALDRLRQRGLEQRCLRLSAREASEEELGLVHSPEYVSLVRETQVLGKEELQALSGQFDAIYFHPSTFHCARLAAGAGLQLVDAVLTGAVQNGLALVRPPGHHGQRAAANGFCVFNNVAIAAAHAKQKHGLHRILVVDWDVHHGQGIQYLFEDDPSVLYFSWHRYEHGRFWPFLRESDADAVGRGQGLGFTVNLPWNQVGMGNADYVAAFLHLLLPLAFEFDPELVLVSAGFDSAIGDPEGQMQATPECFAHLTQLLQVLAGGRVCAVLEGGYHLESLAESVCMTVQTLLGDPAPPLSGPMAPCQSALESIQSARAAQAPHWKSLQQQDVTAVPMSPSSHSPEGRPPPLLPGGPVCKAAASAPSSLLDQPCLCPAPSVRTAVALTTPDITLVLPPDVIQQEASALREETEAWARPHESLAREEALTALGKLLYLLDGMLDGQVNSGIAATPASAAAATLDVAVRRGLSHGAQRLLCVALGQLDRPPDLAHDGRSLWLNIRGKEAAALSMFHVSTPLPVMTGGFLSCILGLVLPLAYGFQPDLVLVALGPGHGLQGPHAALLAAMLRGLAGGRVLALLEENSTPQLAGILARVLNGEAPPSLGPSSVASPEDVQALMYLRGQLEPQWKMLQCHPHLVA

Human HDAC6 = biological target: T2, Human HDAC6 (Homo sapiens, UniProt Q9UBN7); experiment: In vitro HDAC inhibition assay, HDAC6; type: biochemical; conditions: read-out: HDAC isoform IC50, HDAC6
T2 construct: Full length with N-terminal GST tag, MW=159 kDa; GST (N); host or cells: baculovirus expression system, Sf9 cells
T2 sequence (Q9UBN7 1-1215): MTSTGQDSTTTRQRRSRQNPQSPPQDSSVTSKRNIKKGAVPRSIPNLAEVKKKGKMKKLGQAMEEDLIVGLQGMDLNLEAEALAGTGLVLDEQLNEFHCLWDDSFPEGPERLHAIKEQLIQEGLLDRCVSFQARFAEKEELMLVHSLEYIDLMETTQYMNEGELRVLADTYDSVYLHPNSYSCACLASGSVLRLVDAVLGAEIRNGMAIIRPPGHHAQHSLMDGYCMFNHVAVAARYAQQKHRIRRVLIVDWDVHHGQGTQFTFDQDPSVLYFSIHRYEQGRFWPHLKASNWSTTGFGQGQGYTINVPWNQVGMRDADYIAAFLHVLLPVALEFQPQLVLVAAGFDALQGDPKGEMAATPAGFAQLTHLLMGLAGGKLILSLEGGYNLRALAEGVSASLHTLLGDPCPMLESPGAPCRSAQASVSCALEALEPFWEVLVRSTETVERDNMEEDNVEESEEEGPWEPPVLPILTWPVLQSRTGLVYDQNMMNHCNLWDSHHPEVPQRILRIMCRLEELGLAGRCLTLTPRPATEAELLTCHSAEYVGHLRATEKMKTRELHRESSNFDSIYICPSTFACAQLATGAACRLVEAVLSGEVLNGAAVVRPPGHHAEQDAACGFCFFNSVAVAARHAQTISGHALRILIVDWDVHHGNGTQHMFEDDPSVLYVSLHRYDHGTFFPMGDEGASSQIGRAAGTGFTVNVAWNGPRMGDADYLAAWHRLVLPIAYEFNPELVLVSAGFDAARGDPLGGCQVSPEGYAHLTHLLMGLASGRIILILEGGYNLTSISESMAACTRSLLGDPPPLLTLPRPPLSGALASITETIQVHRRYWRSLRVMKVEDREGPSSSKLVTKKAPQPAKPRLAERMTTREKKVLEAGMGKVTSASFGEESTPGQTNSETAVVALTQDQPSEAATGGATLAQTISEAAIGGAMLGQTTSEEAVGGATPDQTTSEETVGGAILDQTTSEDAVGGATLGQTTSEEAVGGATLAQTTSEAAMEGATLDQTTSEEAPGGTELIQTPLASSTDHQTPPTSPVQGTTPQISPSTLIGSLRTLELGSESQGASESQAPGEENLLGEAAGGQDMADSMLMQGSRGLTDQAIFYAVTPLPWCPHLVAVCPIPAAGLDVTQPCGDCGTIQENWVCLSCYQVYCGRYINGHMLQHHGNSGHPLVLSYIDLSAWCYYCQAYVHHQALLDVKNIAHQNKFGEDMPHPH

L3.6pl = experiment: In vitro growth inhibition (GI), MTS cell proliferation assay (Table 5), L3.6pl; type: cell-based; conditions: Homo sapiens, 72 hours post-treatment
BxPC3 = experiment: In vitro growth inhibition (GI), MTS cell proliferation assay (Table 5), BxPC3; type: cell-based; conditions: Homo sapiens, BXPC-3, 72 hours post-treatment
PANC1 cells = experiment: Scratch-wound cell migration assay; type: cell-based; set-up: key to Inhibition of cell migration, 24 h / Inhibition of cell migration, 48 h: Level of inhibition (high to low): +++, ++ or +; Level of inhibition (high to low): +++, ++ or +; Level of inhibition (high to low): +++, ++ or +; no inhibition: −; conditions: for Inhibition of cell migration, 24 h: PANC1, 24 h post wounding; for Inhibition of cell migration, 48 h: PANC1, 48 h post wounding
Method: FIG. 2 contains photographs of PANC1 cells treated with present compounds 9 and 6 taken 24 and 48 hours (post wounding) after a scratch was made through a confluent layer of cells; and
PANC1 Cell migration and effect on T and NK Cells. The effect of HDAC6 inhibition on cell migration and cellular cytotoxicity was evaluated. […] Thus, these HDAC6-selective inhibitors could function well to block metastasis. However, in contrast to the effect observed on cell migration, none of the compounds tested affected CD8+ T cell or natural killer (NK) cell-mediated cytotoxicity, despite the ability of the compounds to substantially increase the levels of acetyl-tubulin in these cell lines.

acetylated alpha-tubulin = experiment: Accumulation of acetylated alpha-tubulin in pancreatic cancer cells; type: cell-based; conditions: FIG. 1A
Excerpt: Cell cycle and inhibition of alpha-tubulin deacetylation.

[1] = read-out: HDAC isoform IC50, HDAC1, NI = No inhibition at a concentration of 50 pM (footnote b)

Chain of HDAC3/NcoR2 complex (O15379 whole entry, canonical isoform): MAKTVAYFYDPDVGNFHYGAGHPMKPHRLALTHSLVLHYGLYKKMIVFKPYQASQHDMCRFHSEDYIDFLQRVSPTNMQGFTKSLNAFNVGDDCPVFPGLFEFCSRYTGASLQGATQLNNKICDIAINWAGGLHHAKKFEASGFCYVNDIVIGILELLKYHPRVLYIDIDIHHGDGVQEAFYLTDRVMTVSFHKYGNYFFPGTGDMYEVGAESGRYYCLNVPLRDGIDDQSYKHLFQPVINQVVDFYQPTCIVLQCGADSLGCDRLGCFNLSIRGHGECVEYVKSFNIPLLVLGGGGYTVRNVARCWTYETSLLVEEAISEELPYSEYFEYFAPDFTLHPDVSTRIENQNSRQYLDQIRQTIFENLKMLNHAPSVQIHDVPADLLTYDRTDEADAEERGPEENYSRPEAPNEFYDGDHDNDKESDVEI
Chain of HDAC3/NcoR2 complex (Q9Y618 395-489 partner limits assumed): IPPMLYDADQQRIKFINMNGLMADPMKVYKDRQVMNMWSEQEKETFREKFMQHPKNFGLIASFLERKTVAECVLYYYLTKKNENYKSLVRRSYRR
Chain of Human HDAC1 (Q13547 whole entry, canonical isoform): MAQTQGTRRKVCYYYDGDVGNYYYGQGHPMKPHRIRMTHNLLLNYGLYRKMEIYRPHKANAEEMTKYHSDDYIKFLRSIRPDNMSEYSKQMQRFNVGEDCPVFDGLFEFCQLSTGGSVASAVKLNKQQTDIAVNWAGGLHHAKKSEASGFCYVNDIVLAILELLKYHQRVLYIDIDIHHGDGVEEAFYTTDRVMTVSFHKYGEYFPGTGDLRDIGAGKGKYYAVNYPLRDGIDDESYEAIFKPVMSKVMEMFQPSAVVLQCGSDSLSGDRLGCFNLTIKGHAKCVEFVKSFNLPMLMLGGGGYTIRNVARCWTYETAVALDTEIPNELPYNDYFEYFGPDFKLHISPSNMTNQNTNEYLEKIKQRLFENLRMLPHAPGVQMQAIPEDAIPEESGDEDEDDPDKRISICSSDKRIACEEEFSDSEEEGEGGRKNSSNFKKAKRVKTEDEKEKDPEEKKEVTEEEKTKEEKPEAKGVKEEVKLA
Chain of HDAC2 (Q92769 whole entry, canonical isoform): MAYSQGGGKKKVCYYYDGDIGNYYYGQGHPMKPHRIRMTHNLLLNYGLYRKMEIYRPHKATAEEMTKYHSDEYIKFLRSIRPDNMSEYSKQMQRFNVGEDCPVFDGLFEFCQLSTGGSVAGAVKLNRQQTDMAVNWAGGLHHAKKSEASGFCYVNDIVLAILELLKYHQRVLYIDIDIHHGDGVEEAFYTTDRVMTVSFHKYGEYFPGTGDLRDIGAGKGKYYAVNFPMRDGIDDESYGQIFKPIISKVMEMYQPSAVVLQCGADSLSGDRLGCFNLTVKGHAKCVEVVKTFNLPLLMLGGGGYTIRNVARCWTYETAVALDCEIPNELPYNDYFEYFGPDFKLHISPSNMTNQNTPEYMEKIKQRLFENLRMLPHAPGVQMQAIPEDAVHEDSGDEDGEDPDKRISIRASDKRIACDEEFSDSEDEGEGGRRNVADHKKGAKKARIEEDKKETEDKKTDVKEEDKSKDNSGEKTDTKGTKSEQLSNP

| IC50 (HDAC2) | IC50 (HDAC3/NcoR2 complex) | IC50 (Human HDAC1; [1]) | IC50 (HDAC10) | IC50 (Human HDAC6) | GI50 (BxPC3) | IC50 (Human HDAC1) | SMILES | GI50 (L3.6pl) | Inhibition of cell migration, 24 h (PANC1 cells) | Inhibition of cell migration, 48 h (PANC1 cells) | Accumulation of acetylated alpha-tubulin (acetylated alpha-tubulin) | Effect on PANC1 cell migration (PANC1 cells; compared to diluent-treated control cells) |
| --- | --- | --- | --- | --- | --- | --- | --- | --- | --- | --- | --- | --- |
| 1140 nM | 448 nM | 401 nM | 52.9 nM | 41.2 nM |  |  | CC(C)(C)OC(=O)Nc1ccc(-c2csc(NC(=O)CCCc3cc(C(=O)NO)no3)n2)cc1 [Compound 3, (4-{2-[4-(3-Hydroxycarbamoyl-isoxazol-5-yl)-butyrylamino]-thiazol-4-yl}-phenyl)-carbamic acid tert-butyl ester] |  |  |  |  |  |
| 1100 nM | 107 nM | 266 nM | 271 nM | 3.3 nM | 7000 nM |  | CCOC(=O)Nc1cccc(-c2csc(NC(=O)CCc3cc(C(=O)NO)no3)n2)c1 [Compound 5, (3-{2-[3-(3-Hydroxycarbamoyl-isoxazol-5-yl)-propionylamino]-thiazol-4-yl}-phenyl)-carbamic acid ethyl ester] | 2100 nM |  |  |  |  |
| 2360 nM | 1770 nM | 6680 nM | 5290 nM | 16.8 nM | 12000 nM |  | Nc1cccc(-c2cc(C(=O)NCCc3cc(C(=O)NO)no3)no2)c1 [Compound 9, 5-(2-{[5-(3-Amino-phenyl)-isoxazole-3-carbonyl]-amino}-ethyl)-isoxazole-3-carboxylic acid hydroxyamide] | 3300 nM | + | − | accumulation of acetylated alpha-tubulin | partial effect |
|  |  |  |  | 6.7 nM | > 50000 nM |  | O=C(NO)c1cc(CCNC(=O)c2cc(-c3cccc(NC(=O)C4CCCCC4)c3)on2)on1 [Compound 11] | > 50000 nM | + | − | accumulation of acetylated alpha-tubulin |  |
| 10400 nM | 7050 nM | 2930 nM | 4630 nM | 4.4 nM | > 50000 nM |  | O=C(Nc1cccc(-c2cc(C(=O)NCCc3cc(C(=O)NO)no3)no2)c1)c1ccccc1 [Compound 12] | > 50000 nM | − | − | accumulation of acetylated alpha-tubulin |  |
| 2490 nM | 215 nM | 350 nM | 204 nM | 5.4 nM |  |  | O=C(NO)c1ccc(CNC(=O)c2cc(-c3ccc(NC(=O)C4CCCCC4)cc3)on2)cc1 [Compound 16, 5-[4-(Cyclohexanecarbonyl-amino)-phenyl]-isoxazole-3-carboxylic acid 4-hydroxycarbamoyl-benzylamide] |  |  |  |  |  |
|  | 41600 nM |  |  | 3050 nM |  |  | O=C(NO)c1cc(CC(Cc2c[nH]c3ccccc23)NC(=O)C(F)(F)F)on1 (centres unmarked) [Compound 20, 5-[3-(1H-Indol-3-yl)-2-(2,2,2-trifluoro-acetylamino)-propyl]-isoxazole-3-carboxylic acid hydroxyamide] |  |  |  |  |  |

The next lines start with the compound.

| SMILES | IC50 (HDAC2) | IC50 (HDAC3/NcoR2 complex) | IC50 (Human HDAC1; [1]) | IC50 (HDAC10) | IC50 (Human HDAC6) | GI50 (BxPC3) | IC50 (Human HDAC1) | GI50 (L3.6pl) | Inhibition of cell migration, 24 h (PANC1 cells) | Inhibition of cell migration, 48 h (PANC1 cells) | Accumulation of acetylated alpha-tubulin (acetylated alpha-tubulin) | Effect on PANC1 cell migration (PANC1 cells; compared to diluent-treated control cells) |
| --- | --- | --- | --- | --- | --- | --- | --- | --- | --- | --- | --- | --- |
| CC(C)(C)OC(=O)Nc1cccc(-c2cc(C(=O)NCCc3cc(C(=O)NO)no3)no2)c1 [Compound 7, (3-{3-[2-(3-Hydroxycarbamoyl-isoxazol-5-yl)-ethylcarbamoyl]-isoxazol-5-yl}-phenyl)-carbamic acid tert-butyl ester] |  | 98800 nM |  |  | 7.7 nM | > 50000 nM | 54000 nM | > 50000 nM | + | + |  |  |
| CCOC(=O)Nc1ccc(-c2cc(C(=O)NCCc3cc(C(=O)NO)no3)no2)cc1 [Compound 8, (4-{3-[2-(3-Hydroxycarbamoyl-isoxazol-5-yl)-ethylcarbamoyl]-isoxazol-5-yl}-phenyl)-carbamic acid ethyl ester] | 41300 nM | 5190 nM | 3910 nM | 12500 nM | 101 nM | > 50000 nM |  | 47000 nM |  |  |  |  |
| CC(C)(C)C(=O)Nc1cccc(-c2cc(C(=O)NCCc3cc(C(=O)NO)no3)no2)c1 [Compound 10, 5-[2-({5-[3-(2,2-Dimethyl-propionylamino)-phenyl]-isoxazole-3-carbonyl}-amino)-ethyl]-isoxazole-3-carboxylic acid hydroxyamide] |  |  |  | 40100 nM | 21.2 nM |  | 76000 nM |  | − | − | accumulation of acetylated alpha-tubulin |  |
| O=C(NO)c1ccc(CNC(=O)c2cc(-c3cccc(NC(=O)C4CCCCC4)c3)on2)cc1 [Compound 17, 5-[3-(Cyclohexanecarbonyl-amino)-phenyl]-isoxazole-3-carboxylic acid 4-hydroxycarbamoyl-benzylamide] | 4300 nM | 669 nM | 212 nM | 191 nM | 2.6 nM |  |  |  |  |  |  |  |
| O=C(NC(Cc1cc(C(=O)NO)no1)Cc1c[nH]c2ccccc12)c1ccc(Cl)cc1 (centres unmarked) [Compound 19, 5-[2-(4-Chloro-benzoylamino)-3-(1H-indol-3-yl)-propyl]-isoxazole-3-carboxylic acid hydroxyamide] |  | 37800 nM |  |  | 430 nM |  | 46600 nM |  |  |  |  |  |
| COc1ccc(C(=O)NC(Cc2cc(C(=O)NO)no2)Cc2c[nH]c3ccccc23)cc1OC (centres unmarked) [Compound 21, 5-[2-(3,4-Dimethoxy-benzoylamino)-3-(1H-indol-3-yl)-propyl]-isoxazole-3-carboxylic acid hydroxyamide] |  | 54100 nM |  |  | 721 nM |  | 49900 nM |  |  |  |  |  |
